Experimental data taken from the kinase profiling compilation of Christmann-Franck et al. (2016).

Assays:
Experiment in all cases: radiometric filter-binding kinase assay
PKN2 (human) = PKN2 (human) (UniProt Q16513)
MAP2K6 (human) = MAP2K6 (human) (UniProt P52564); conditions: compound 10.0 µM
INSRR (human) = INSRR (human) (UniProt P14616)
EPHB1 (human) = EPHB1 (human) (UniProt P54762); conditions: compound 10.0 µM
MAP3K9 (human) = MAP3K9 (human) (UniProt P80192)
LCK (mouse) = conditions: accession and sequence are those of the human protein
PIM2 (human) = PIM2 (human) (UniProt Q9P1W9)
Chain of PIM2 (human) (Q9P1W9 whole entry, looked up): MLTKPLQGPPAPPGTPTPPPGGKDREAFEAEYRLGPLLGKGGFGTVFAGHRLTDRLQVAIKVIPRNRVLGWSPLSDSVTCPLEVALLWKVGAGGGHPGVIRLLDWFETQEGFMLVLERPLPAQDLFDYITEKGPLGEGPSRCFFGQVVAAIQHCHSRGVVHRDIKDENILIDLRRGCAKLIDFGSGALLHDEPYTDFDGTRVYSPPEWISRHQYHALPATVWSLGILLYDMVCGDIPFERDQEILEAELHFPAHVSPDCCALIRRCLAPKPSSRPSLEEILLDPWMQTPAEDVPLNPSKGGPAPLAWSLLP

NEK2 (human) = NEK2 (human) (UniProt P51955)
TBK1 (human) = TBK1 (human) (UniProt Q9UHD2)
MAP2K1 (human) = MAP2K1 (human) (UniProt Q02750)
MAPK10 (human) = MAPK10 (human) (UniProt P53779)
MAPK13 (human) = MAPK13 (human) (UniProt O15264)
[1] = system: RPS6KB1 (human), P23443 [T412E]
TTK (human) = TTK (human) (UniProt P33981)
GSK3B (human) = GSK3B (human) (UniProt P49841)
Chain of GSK3B (human) (P49841 whole entry, looked up): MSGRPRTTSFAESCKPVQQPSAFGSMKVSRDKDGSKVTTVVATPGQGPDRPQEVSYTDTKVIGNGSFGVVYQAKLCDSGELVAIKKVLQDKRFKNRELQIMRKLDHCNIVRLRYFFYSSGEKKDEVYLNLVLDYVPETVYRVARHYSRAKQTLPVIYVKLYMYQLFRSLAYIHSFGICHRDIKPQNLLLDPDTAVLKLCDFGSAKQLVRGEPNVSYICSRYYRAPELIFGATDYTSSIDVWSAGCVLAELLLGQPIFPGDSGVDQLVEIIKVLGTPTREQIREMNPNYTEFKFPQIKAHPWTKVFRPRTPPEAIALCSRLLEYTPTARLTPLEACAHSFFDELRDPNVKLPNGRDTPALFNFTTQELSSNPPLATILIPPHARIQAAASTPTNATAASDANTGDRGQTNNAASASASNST

NEK6 (human) = NEK6 (human) (UniProt Q9HC98)
MYLK (human) = MYLK (human) (UniProt Q15746)
IRAK4 (human) = IRAK4 (human) (UniProt Q9NWZ3)
Chain of IRAK4 (human) (Q9NWZ3 whole entry, looked up): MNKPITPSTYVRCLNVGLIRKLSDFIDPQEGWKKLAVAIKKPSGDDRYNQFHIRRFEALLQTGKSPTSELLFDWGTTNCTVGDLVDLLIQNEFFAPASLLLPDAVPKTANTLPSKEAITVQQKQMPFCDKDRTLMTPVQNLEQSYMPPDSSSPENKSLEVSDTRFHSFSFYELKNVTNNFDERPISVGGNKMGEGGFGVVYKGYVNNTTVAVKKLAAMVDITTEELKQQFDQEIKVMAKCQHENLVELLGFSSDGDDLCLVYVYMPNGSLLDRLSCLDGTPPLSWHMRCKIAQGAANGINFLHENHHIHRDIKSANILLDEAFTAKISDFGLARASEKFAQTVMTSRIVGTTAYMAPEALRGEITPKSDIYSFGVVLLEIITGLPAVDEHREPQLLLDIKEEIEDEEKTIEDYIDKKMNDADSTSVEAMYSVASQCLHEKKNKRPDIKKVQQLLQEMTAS

FGFR1 (human) = FGFR1 (human) (UniProt P11362)
SYK (human) = SYK (human) (UniProt P43405)
EPHA2 (human) = EPHA2 (human) (UniProt P29317)
MAPK11 (human) = MAPK11 (human) (UniProt Q15759)
Chain of MAPK11 (human) (Q15759 whole entry, looked up): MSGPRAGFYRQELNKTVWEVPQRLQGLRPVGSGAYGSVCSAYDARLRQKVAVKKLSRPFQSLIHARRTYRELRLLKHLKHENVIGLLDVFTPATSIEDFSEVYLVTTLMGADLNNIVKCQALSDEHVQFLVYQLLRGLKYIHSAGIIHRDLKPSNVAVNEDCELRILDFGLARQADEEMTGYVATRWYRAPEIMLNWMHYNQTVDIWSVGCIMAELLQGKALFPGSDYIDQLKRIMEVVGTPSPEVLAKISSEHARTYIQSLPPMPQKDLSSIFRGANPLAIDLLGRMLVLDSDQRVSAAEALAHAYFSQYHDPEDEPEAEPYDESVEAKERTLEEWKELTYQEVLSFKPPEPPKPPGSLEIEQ

[2] = target: STK11 CAB39 STRADA (human) (UniProt Q9Y376+Q7RTN6+Q15831)
ROCK2 (rat) = conditions: accession and sequence are those of the human protein
MARK1 (human) = MARK1 (human) (UniProt Q9P0L2)
MKNK1 (human) = MKNK1 (human) (UniProt Q9BUB5)
[3] = system: AKT2 (human), P31751 [S474D]
Chain of AKT2 (human), P31751 [S474D] (P31751 whole entry S474D, looked up): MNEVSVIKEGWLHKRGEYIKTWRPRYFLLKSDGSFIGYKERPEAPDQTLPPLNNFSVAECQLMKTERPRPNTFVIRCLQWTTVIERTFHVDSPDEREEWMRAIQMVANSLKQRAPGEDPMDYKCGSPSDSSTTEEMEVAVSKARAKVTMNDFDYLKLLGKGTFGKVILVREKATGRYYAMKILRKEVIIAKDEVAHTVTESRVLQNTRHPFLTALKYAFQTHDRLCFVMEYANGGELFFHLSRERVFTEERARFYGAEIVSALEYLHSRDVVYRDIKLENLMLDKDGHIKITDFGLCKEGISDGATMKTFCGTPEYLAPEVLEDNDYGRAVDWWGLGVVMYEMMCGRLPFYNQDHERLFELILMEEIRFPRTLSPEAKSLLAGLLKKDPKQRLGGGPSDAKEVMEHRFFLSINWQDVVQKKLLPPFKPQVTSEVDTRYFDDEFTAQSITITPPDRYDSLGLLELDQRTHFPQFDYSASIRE

PIM3 (human) = PIM3 (human) (UniProt Q86V86)
CSNK2A1 (human) = CSNK2A1 (human) (UniProt P68400)
Chain of CSNK2A1 (human) (P68400 whole entry, looked up): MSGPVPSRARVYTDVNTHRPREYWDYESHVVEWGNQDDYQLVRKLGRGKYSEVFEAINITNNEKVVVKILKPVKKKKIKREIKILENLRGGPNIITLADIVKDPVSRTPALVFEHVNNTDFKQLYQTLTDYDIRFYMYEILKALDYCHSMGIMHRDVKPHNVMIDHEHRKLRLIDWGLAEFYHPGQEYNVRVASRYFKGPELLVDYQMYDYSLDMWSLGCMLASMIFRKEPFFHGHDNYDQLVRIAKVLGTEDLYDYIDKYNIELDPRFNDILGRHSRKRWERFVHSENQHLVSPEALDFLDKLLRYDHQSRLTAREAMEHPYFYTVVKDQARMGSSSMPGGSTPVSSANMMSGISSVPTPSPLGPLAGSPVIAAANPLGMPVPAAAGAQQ

SRPK1 (human) = SRPK1 (human) (UniProt Q96SB4)
DYRK3 (human) = DYRK3 (human) (UniProt O43781)
[4] = system: AKT1 (human), P31749 [S473D]
INSR (human) = INSR (human) (UniProt P06213)
Chain of INSR (human) (P06213 whole entry, looked up): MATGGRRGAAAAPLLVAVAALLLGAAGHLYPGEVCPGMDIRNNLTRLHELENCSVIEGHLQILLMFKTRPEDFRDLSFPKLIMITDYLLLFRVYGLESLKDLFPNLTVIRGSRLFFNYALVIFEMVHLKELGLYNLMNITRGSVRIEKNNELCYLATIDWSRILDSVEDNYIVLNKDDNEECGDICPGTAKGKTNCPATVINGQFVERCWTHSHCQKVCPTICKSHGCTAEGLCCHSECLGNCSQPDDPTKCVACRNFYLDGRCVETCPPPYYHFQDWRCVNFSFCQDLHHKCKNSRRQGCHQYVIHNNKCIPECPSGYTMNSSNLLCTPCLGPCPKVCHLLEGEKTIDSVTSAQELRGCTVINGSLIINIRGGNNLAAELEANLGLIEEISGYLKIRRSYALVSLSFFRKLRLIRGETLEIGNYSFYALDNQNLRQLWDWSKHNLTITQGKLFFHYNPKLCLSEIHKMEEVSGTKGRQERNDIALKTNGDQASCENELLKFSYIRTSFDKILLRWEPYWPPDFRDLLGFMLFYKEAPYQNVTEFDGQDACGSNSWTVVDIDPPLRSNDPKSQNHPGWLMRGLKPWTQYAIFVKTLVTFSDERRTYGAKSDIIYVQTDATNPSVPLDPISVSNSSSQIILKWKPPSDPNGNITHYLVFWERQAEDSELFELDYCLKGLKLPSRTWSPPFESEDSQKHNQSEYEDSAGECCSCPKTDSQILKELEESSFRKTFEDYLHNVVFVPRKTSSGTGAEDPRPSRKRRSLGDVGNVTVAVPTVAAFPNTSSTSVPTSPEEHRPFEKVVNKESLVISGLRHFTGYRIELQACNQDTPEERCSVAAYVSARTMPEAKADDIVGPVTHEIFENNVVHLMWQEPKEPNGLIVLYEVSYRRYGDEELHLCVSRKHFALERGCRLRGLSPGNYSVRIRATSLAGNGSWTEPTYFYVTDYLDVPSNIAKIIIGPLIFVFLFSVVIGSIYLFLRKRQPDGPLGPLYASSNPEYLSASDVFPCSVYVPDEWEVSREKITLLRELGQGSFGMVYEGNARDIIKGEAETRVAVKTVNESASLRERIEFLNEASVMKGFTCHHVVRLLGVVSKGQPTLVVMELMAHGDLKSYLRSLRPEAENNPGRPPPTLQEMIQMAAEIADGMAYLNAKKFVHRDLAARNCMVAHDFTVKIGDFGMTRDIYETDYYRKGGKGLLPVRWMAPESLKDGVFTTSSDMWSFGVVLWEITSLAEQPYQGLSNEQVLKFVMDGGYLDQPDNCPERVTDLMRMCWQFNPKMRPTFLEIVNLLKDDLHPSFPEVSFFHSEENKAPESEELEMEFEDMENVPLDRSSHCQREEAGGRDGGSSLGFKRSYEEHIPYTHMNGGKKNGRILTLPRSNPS

[5] = system: PAK2 (human), Q13177 [T402E]
PHKG1 (human) = PHKG1 (human) (UniProt Q16816)
MARK2 (human) = MARK2 (human) (UniProt Q7KZI7)

Chain of MAP3K9 (human) (P80192 whole entry, looked up): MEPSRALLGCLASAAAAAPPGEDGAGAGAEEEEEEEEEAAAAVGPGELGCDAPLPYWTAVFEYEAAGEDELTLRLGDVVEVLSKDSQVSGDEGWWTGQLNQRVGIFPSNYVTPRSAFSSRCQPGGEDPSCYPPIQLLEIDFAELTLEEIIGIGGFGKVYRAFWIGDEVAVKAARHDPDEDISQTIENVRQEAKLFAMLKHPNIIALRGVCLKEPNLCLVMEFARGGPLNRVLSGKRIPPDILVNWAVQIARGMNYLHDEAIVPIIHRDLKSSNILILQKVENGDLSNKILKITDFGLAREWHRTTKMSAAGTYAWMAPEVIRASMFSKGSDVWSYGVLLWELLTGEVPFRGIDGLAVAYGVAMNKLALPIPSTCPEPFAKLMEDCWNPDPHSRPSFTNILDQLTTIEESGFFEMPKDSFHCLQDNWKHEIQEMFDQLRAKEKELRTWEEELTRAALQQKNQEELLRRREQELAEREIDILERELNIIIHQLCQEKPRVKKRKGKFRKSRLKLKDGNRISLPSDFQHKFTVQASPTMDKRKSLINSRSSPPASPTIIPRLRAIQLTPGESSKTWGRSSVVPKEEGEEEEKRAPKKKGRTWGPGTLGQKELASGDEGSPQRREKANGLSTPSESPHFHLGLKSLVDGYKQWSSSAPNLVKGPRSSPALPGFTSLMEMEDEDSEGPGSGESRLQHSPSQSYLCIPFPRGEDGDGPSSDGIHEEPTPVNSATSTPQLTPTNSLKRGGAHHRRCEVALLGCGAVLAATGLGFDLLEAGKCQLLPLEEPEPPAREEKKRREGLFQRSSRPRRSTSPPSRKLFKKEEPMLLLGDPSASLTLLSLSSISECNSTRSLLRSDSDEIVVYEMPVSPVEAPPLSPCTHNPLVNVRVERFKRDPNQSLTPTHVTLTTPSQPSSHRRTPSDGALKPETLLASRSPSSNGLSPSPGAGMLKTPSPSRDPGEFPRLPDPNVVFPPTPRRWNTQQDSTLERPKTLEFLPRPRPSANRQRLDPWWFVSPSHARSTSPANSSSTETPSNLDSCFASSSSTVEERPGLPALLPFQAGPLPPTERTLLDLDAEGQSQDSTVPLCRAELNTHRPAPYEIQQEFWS

Compound: CCOC(=O)c1ccc(N2NC(=O)/C(=C/c3ccc([N+](=O)[O-])o3)C2=O)cc1
- residual activity (PKN2 (human); compound 10.0 µM): 105%
- residual activity (MAP2K6 (human)): 87%
- residual activity (INSRR (human); compound 10.0 µM): 106%
- residual activity (EPHB1 (human)): 85%
- residual activity (MAP3K9 (human); compound 10.0 µM): 78%
- residual activity (LCK (mouse); compound 10.0 µM): 121%
- residual activity (PIM2 (human); compound 10.0 µM): 107%
- residual activity (NEK2 (human); compound 10.0 µM): 125%
- residual activity (TBK1 (human); compound 10.0 µM): 100%
- residual activity (MAP2K1 (human); compound 10.0 µM): 29%
- residual activity (MAPK10 (human); compound 10.0 µM): 79%
- residual activity (MAPK13 (human); compound 10.0 µM): 106%
- residual activity ([1]; compound 10.0 µM): 120%
- residual activity (TTK (human); compound 10.0 µM): 90%
- residual activity (GSK3B (human); compound 10.0 µM): 106%
- residual activity (NEK6 (human); compound 10.0 µM): 106%
- residual activity (MYLK (human); compound 10.0 µM): 109%
- residual activity (IRAK4 (human); compound 10.0 µM): 112%
- residual activity (FGFR1 (human); compound 10.0 µM): 69%
- residual activity (SYK (human); compound 10.0 µM): 92%
- residual activity (EPHA2 (human); compound 10.0 µM): 90%
- residual activity (MAPK11 (human); compound 10.0 µM): 113%
- residual activity ([2]; compound 10.0 µM): 134%
- residual activity (ROCK2 (rat); compound 10.0 µM): 91%
- residual activity (MARK1 (human); compound 10.0 µM): 62%
- residual activity (MKNK1 (human); compound 10.0 µM): 110%
- residual activity ([3]; compound 10.0 µM): 49%
- residual activity (PIM3 (human); compound 10.0 µM): 92%
- residual activity (CSNK2A1 (human); compound 10.0 µM): 106%
- residual activity (SRPK1 (human); compound 10.0 µM): 76%
- residual activity (DYRK3 (human); compound 10.0 µM): 55%
- residual activity ([4]; compound 10.0 µM): 79%
- residual activity (INSR (human); compound 10.0 µM): 99%
- residual activity ([5]; compound 10.0 µM): 91%

Compound: Cc1cccc(-c2nn(C(=S)Nc3ccccc3)cc2-c2ccnc3ccccc23)n1
- residual activity (PKN2 (human); compound 0.1 µM): 105%
- residual activity (PKN2 (human); compound 1.0 µM): 91%
- residual activity (INSRR (human); compound 0.1 µM): 98%
- residual activity (INSRR (human); compound 1.0 µM): 103%
- residual activity (MAP3K9 (human); compound 0.1 µM): 96%
- residual activity (MAP3K9 (human); compound 1.0 µM): 86%
- residual activity (LCK (mouse); compound 0.1 µM): 105%
- residual activity (LCK (mouse); compound 1.0 µM): 62%
- residual activity (PIM2 (human); compound 0.1 µM): 97%
- residual activity (PIM2 (human); compound 1.0 µM): 94%
- residual activity (NEK2 (human); compound 0.1 µM): 109%
- residual activity (NEK2 (human); compound 1.0 µM): 92%
- residual activity (TBK1 (human); compound 0.1 µM): 102%
- residual activity (TBK1 (human); compound 1.0 µM): 106%
- residual activity (MAP2K1 (human); compound 1.0 µM): 98%
- residual activity (MAPK10 (human); compound 0.1 µM): 119%
- residual activity (MAPK10 (human); compound 1.0 µM): 99%
- residual activity (MAPK13 (human); compound 1.0 µM): 94%
- residual activity ([1]; compound 0.1 µM): 108%
- residual activity ([1]; compound 1.0 µM): 105%
- residual activity (TTK (human); compound 0.1 µM): 113%
- residual activity (TTK (human); compound 1.0 µM): 98%
- residual activity (GSK3B (human); compound 0.1 µM): 99%
- residual activity (GSK3B (human); compound 1.0 µM): 79%
- residual activity (PHKG1 (human); compound 0.1 µM): 100%
- residual activity (PHKG1 (human); compound 1.0 µM): 112%
- residual activity (NEK6 (human); compound 0.1 µM): 107%
- residual activity (NEK6 (human); compound 1.0 µM): 100%
- residual activity (MYLK (human); compound 0.1 µM): 104%
- residual activity (MYLK (human); compound 1.0 µM): 89%
- residual activity (IRAK4 (human); compound 0.1 µM): 101%
- residual activity (IRAK4 (human); compound 1.0 µM): 99%
- residual activity (FGFR1 (human); compound 0.1 µM): 64%
- residual activity (FGFR1 (human); compound 1.0 µM): 37%
- residual activity (SYK (human); compound 0.1 µM): 109%
- residual activity (SYK (human); compound 1.0 µM): 106%
- residual activity (EPHA2 (human); compound 0.1 µM): 105%
- residual activity (EPHA2 (human); compound 1.0 µM): 92%
- residual activity (MAPK11 (human); compound 0.1 µM): 89%
- residual activity (MAPK11 (human); compound 1.0 µM): 61%
- residual activity ([2]; compound 0.1 µM): 101%
- residual activity ([2]; compound 1.0 µM): 99%
- residual activity (ROCK2 (rat); compound 0.1 µM): 96%
- residual activity (ROCK2 (rat); compound 1.0 µM): 104%
- residual activity (MARK2 (human); compound 0.1 µM): 121%
- residual activity (MARK2 (human); compound 1.0 µM): 110%
- residual activity (MARK1 (human); compound 0.1 µM): 107%
- residual activity (MARK1 (human); compound 1.0 µM): 113%
- residual activity (MKNK1 (human); compound 0.1 µM): 103%
- residual activity (MKNK1 (human); compound 1.0 µM): 93%
- residual activity ([3]; compound 0.1 µM): 108%
- residual activity ([3]; compound 1.0 µM): 96%
- residual activity (PIM3 (human); compound 0.1 µM): 91%
- residual activity (PIM3 (human); compound 1.0 µM): 117%
- residual activity (CSNK2A1 (human); compound 0.1 µM): 102%
- residual activity (CSNK2A1 (human); compound 1.0 µM): 104%
- residual activity (SRPK1 (human); compound 0.1 µM): 101%
- residual activity (SRPK1 (human); compound 1.0 µM): 84%
- residual activity (DYRK3 (human); compound 0.1 µM): 102%
- residual activity (DYRK3 (human); compound 1.0 µM): 93%
- residual activity ([4]; compound 0.1 µM): 102%
- residual activity ([4]; compound 1.0 µM): 106%
- residual activity (INSR (human); compound 0.1 µM): 108%
- residual activity (INSR (human); compound 1.0 µM): 94%
- residual activity ([5]; compound 0.1 µM): 111%
- residual activity ([5]; compound 1.0 µM): 101%
